The text below walks through data of ChEMBL document CHEMBL5143619, “Antimicrobial Prenylated Isoflavones from the Leaves of the Amazonian Medicinal Plant Vatairea guianensis Aubl” (J Nat Prod, 2022).

The subject of one data set is Enterococcus faecium. The experiment in a line: Antibacterial activity against Enterococcus faecium assessed as bacterial growth inhibition incubated for 5 hrs by bromocresol purple dye based assay. It is filed as functional, organism-based.
For a further data set, the system named is MDA-MB-231. The experiment in a line: Cytotoxicity against human MDA-MB-231 cells assessed as reduction in cell viability incubated for 24 hrs by CellTiter-Blue cell viability assay. It is filed as functional, cell-based. Conditions: MDA-MB-231, 24 h.
A short description of data set [1]: Cytotoxicity against human HaCaT cells assessed as reduction in cell viability incubated for 24 hrs by CellTiter-Blue cell viability assay. The format is toxicity, cell-based. (In general: Resazurin is reduced to fluorescent resorufin, in cell work by metabolically active cells.)
The next data set concerns A-375. The experiment in a line: Cytotoxicity against human A-375 cells assessed as reduction in cell viability incubated for 24 hrs by CellTiter-Blue cell viability assay. The format is functional, cell-based. Particulars: A-375, 24 h.
A further data set deals with HCT-116. Kind of data set: Cytotoxicity against human HCT-116 cells assessed as reduction in cell viability incubated for 24 hrs by CellTiter-Blue cell viability assay. It is filed as functional, cell-based. Particulars: HCT-116, 24 h.
A further data set has as its system Staphylococcus aureus. The experiment in a line: Antibacterial activity against methicillin-resistant Staphylococcus aureus assessed as bacterial growth inhibition incubated for 5 hrs under shaking condition by resazurin dye based assay. It is filed as functional, organism-based.
Data set [2] can be described thus: Selectivity index, ratio of IC50 for human HaCaT cells to IC50 for antibacterial activity against methicillin-resistant Staphylococcus aureus. The format is toxicity. Conditions: read-out: Ratio IC50.
Data set [3] in a line: Selectivity index, ratio of IC50 for human HaCaT cells to IC50 for human A-375 cells. It is filed as toxicity. Particulars: read-out: Ratio IC50.
A short description of data set [4]: Selectivity index, ratio of IC50 for human HaCaT cells to IC50 for human HCT-116 cells. Particulars: read-out: Ratio IC50. It is filed as toxicity.
The nature of data set [5]: Selectivity index, ratio of IC50 for human HaCaT cells to IC50 for human MDA-MB-231 cells. It is filed as toxicity. Particulars: read-out: Ratio IC50.
The next data set relates to Cryptococcus neoformans. Kind of data set: Antifungal activity against Cryptococcus neoformans assessed as fungal growth inhibition incubated for 5 hrs by microplate reader analysis. It is filed as functional, organism-based.
A short description of data set [6]: Selectivity index, ratio of IC50 for human HaCaT cells to IC50 for antibacterial activity against Enterococcus faecium. It is filed as toxicity. Particulars: read-out: Ratio IC50.
In another data set the test system is Trichophyton rubrum. The experiment in a line: Antifungal activity against Trichophyton rubrum assessed as fungal growth inhibition incubated for 72 hrs by microplate reader analysis. It is filed as functional, organism-based.
The next data set relates to Candida albicans. Kind of data set: Antifungal activity against Candida albicans assessed as fungal growth inhibition incubated for 5 hrs under shaking condition by resazurin dye based assay. The format is functional, organism-based.
Data set [7] can be described thus: Selectivity index, ratio of IC50 for human HaCaT cells to IC50 for antifungal activity against Candida albicans. It is filed as toxicity. Particulars: read-out: Ratio IC50.
A short description of data set [8]: Selectivity index, ratio of IC50 for human HaCaT cells to IC50 for antifungal activity against Trichophyton rubrum. The format is toxicity. Conditions: read-out: Ratio IC50.
Data set [9] is described as follows: Selectivity index, ratio of IC50 for human HaCaT cells to IC50 for antifungal activity against Cryptococcus neoformans. The format is toxicity. Particulars: read-out: Ratio IC50.

A value given as a limit tells only on which side of the number the result lay.

With `CC1(C)S[C@@H]2[C@H](NC(=O)[C@H](N)c3ccccc3)C(=O)N2[C@H]1C(=O)O` [AMPICILLIN], in the data set with Enterococcus faecium, the IC50 – broadly, the concentration at which inhibition is half-maximal – came out at 0.6 µM.

Regarding `COc1cccc2c1C(=O)c1c(O)c3c(c(O)c1C2=O)C[C@@](O)(C(=O)CO)C[C@@H]3O[C@H]1C[C@H](N)[C@H](O)[C@H](C)O1` [DOXORUBICIN], the IC50 came out at 25.8 µM in the data set on MDA-MB-231, 0.4 µM with A-375 and 49.5 µM in the data set on HCT-116. Also, the half-maximal inhibitory concentration (IC50) at 24 h in [1] is 50 µM.

For the compound `CC(C)(O)CCc1c(O)cc(O)c2c(=O)c(-c3ccc(O)c(O)c3)coc12`, the half-maximal inhibitory concentration (IC50) in the data set on Staphylococcus aureus turned out to be 29.6 µM. Further, the IC50 at 24 h in data set [1] was 85.9 µM. Besides, the selectivity ratio in data set [2] was 2.9.

Consider `COc1cc(-c2coc3c(CC=C(C)C)c(O)cc(O)c3c2=O)ccc1O`, for which the results for the selectivity ratio in [3], in data set [4] and in [5] were 1.4, 1.9 and 1.5, respectively. The IC50 in the data set on MDA-MB-231 is 87.5 µM; in the data set on A-375, 58.2 µM; in the data set on HCT-116 it was 110 µM. Also, the IC50 at 24 h in data set [1] is 80.7 µM.

For the compound `C[C@@H]1[C@H](O)[C@@H](C)/C=C/C=C/C=C/C=C/C=C/C=C/C=C/[C@H](O[C@@H]2O[C@H](C)[C@@H](O)[C@H](N)[C@@H]2O)C[C@@H]2O[C@](O)(C[C@@H](O)C[C@@H](O)[C@H](O)CC[C@@H](O)C[C@@H](O)CC(=O)O[C@H]1C)C[C@H](O)[C@H]2C(=O)O` [AMPHOTERICIN B], the concentration for half-maximal inhibition (IC50) in the data set on Cryptococcus neoformans turned out to be 0.2 µM.

Consider `COc1ccc(-c2coc3c(CCC(C)(C)O)c(O)cc(O)c3c2=O)cc1O`, for which the 50% inhibitory concentration (IC50) with Staphylococcus aureus came to 49 µM. Also, the selectivity ratio in [2] is over 5.5.

For the compound `O=C(N[C@H](CO)[C@H](O)c1ccc([N+](=O)[O-])cc1)C(Cl)Cl` [CHLORAMPHENICOL], the IC50 in the data set on Staphylococcus aureus was 3.1 µM.

For `CC(C)(O)CCc1c(O)cc(O)c2c(=O)c(-c3ccc(O)cc3)coc12`, the selectivity ratio in data set [3] was found to be 0.8; in data set [4], 1.4; in data set [5] it was 0.9. Moreover, the IC50 is 154 µM in the data set with MDA-MB-231, 160 µM in the data set on A-375 and 222 µM in the data set with HCT-116. In addition, the IC50 at 24 h in data set [1] was 135 µM.

`COc1cc(-c2coc3c(CCC(C)(C)O)c(O)cc(O)c3c2=O)ccc1O`: the IC50 with Staphylococcus aureus stood at 37 µM; in the data set with Enterococcus faecium, 80.6 µM; in the data set on A-375 it was 250 µM; in the data set with HCT-116, 234 µM. For the same compound, the selectivity ratio was found to be 0.8 in data set [3], 0.9 in data set [4], 5.6 in data set [2] and 2.6 in data set [6]. For the same compound, in [1], the IC50 at 24 h amounted to 207 µM.

Take `CC(C)=CCc1c(O)cc(O)c2c(=O)c(-c3ccc(O)cc3)coc12`: the selectivity ratio in [3] was 1.8; in data set [4], 0.9. Also, the IC50 at 24 h in data set [1] was 160 µM. For the same compound, the values for the half-inhibitory concentration (IC50) with A-375 and with HCT-116 were 88.5 µM and 187 µM, respectively.

For `Clc1ccccc1C(c1ccccc1)(c1ccccc1)n1ccnc1` [CLOTRIMAZOLE], the half-maximal inhibitory concentration (IC50) with Trichophyton rubrum is 0.3 µM.

For the compound NYSTATIN, the IC50 with Candida albicans amounted to 1.3 µM.

Regarding `COc1ccc(-c2coc3c(CC=C(C)C)c(O)cc(O)c3c2=O)cc1O`, the IC50 is 6.8 µM in the data set on Staphylococcus aureus; 12.8 µM with Enterococcus faecium; 13.6 µM in the data set with Cryptococcus neoformans; 12.2 µM with Trichophyton rubrum; 110 µM in the data set with MDA-MB-231; 58.4 µM with A-375. In addition, the 50% inhibitory concentration (IC50) in the data set on Candida albicans (Candida albicans, 5 h) worked out at 26.9 µM; in the data set with HCT-116, 87.5 µM. The selectivity ratio in [3] was 1.2; in [4], 0.8; in [7], 2.6; in data set [8], 5.7; in [2], 10.3; in data set [6], 5.5. In addition, the selectivity ratio in data set [9] came to 5.1; in data set [5], 0.6. Further, the 50% inhibitory concentration (IC50) at 24 h in data set [1] stood at 69.8 µM.
